{"source": "patent US11518805B2", "about": "“Binding inhibitor between TCTP dimer type IgE-dependent histamine releasing factor and receptor thereof, and use thereof” (EWHA UNIVERSITY—INDUSTRY COLLABORATION FOUNDATION, priority 2014, dated 2022)", "key": {"CIA mouse model": {"tested_on": "CIA mouse model", "assay": "Treatment effect of dTBP2 in CIA mouse model", "type": "in vivo, DBA1/j mice"}, "[1]": {"tested_on": "atopic dermatitis mouse model", "assay": "Effect of dTBP2 in atopic dermatitis mouse model (Biostir AD)", "type": "in vivo, female NC/Nga mice", "experimental": "Particularly, 5 week old specific pathogen free female NC/Nga mice were purchased from Orientbio Inc. (Seoul, Korea), which were adapted for 1 week. After depilating with a hair removal agent, Biostir® AD ointment (Biostir, Japan) was used to induce atopic dermatitis on the dorsal skin. That is, hair was removed from the back of the mouse, on which 150 μl of 4% SDS dissolved in PBS was applied. After 2-3 hours of natural dry, 100 mg of Biostir® AD cream was evenly applied on the back skin and the ear skin of the mouse. The cream was applied twice a week, 6 times total for 3 weeks. It was confirmed that the skin layer of the mouse became thick and keratin was formed on the back skin.\nTo investigate the effect of dTBP2 on atopic dermatitis in the atopic dermatitis-induced mouse, the positive control was administered with PBS, the comparative experimental group was administered with protopic ointment (Astellas Pharma Manufacturing Inc., USA), and the experimental group was treated with dTPB2. On day 0, PBS (subcutaneous injection, 25 mg/kg), protopic ointment (skin application, 100 mg/mouse) and dTBP2 (subcutaneous injection, 25 mg/kg) were respectively applied. On day 1, 100 mg of Biostir® AD cream was applied thereto. On day 2 and day 3, PBS, protopic ointment, and dTBP2 were treated thereto by the same manner as performed on day 0. On day 4, 100 mg of Biostir® AD cream was applied thereto. On day 5, PBS, protopic ointment, and dTBP2 were treated thereto by the same manner as performed on day 0.\nAtopic symptoms were observed and presented as points according to the atopic index such as erythema, drying, excoriation, edema, and erosion, based on which a graph was made (FIG. 32b, 0: no symptoms, 1: weak symptoms, 2: median symptoms, 3: severe symptoms). It was confirmed on the graph that atopy was minor in the group treated with protopic ointment and dTBP2, compared with the control.\nOnce atopic allergy is induced, the stratum corneum and skin layer become thick and the infiltration of inflammatory cells is increased. For the histological evaluation, hematoxylin/eosin staining and toluidine blue staining were performed. The thickness of the skin and the infiltration of immune related inflammatory cells were observed under microscope. As a result, the atopic symptoms including the thick stratum corneum were improved in the groups treated with protopic ointment and dTBP2, compared with the control group treated with PBS alone (FIGS. 34a and 34b).\nLymph node assay examining the effect of an antigen or a drug by observing the changes of lymph node weight was performed to investigate inflammatory reaction induced by skin sensitizing materials."}, "[2]": {"tested_on": "CIA (collagen-induced arthritis) mouse model", "assay": "Preventive effect of dTBP2 in CIA (collagen-induced arthritis) mouse model", "type": "in vivo, male DBA1/j mice", "conditions": "for joint thickness: preventive"}, "HRF [3]": {"tested_on": "HRF", "assay": "HRF binding affinity of heptamer peptides by ELISA (alanine scan of p2)", "conditions": "p2 and its substituted heptamers m1-m7", "source_text": "In order to confirm the residues involved in the HRF binding affinity of the heptamer peptide of the present invention, the amino acid sequence of p2 was substituted with alanine (A), and only m5 was substituted with lysine (K). As a result, the following sequences were established: […]"}, "HRF [4]": {"tested_on": "HRF", "assay": "Phage clone ELISA for binding to immobilized HRF", "experimental": "Particularly, HRF was dissolved in a coating buffer (0.1 M NaHCO 3, pH 8.6) at the concentration of 20 μg/ml, which was loaded in a polystyrene microtiter plate (50 ? /well), followed by coating at 4° C. for overnight and blocking non-specific binding with BSA. The plate was washed with 0.1% Tween/TBS (TBST) 6 times. […] The plate stood at room temperature for 1 hour. TBST was added thereto, and the plate stood for 5 minutes, followed by washing. The washing was performed once after one round of panning, 5 times after 2 and 3 rounds of panning, and 10 times after 4 rounds of panning. 50 ? of glycine/HCl buffer (pH 2.2) was added thereto, which stood for 5 minutes. Then, phages were eluted, and then neutralization was induced with 8 ? of 1 M Tris-HCl (pH 9.1). The eluted phage solution was added to 20 ? of ER2537 culture medium (OD600=0.5˜1), followed by culture in a 37° C. shaking incubator (rpm=200) for 2 hours. 100 ? of SB medium was added thereto, followed by culture for overnight with shaking (250 rpm). The culture solution was centrifuged at 10,000 rpm (4° C.) for 15 minutes. 100 ? of the obtained supernatant was added with 30 ? of 5×PEG/NaCl (20% PEG(w/v), 15% NaCl (w/v)), followed by dissolving for 5 minutes. The mixture was then left in ice for 30 minutes. The mixture was centrifuged at 10,000 rpm (4° C.) for 20 minutes and the supernatant was discarded. The obtained pellet was suspended in 1 ? of 3% BSA/TBS. After performing centrifugation at 14,000 rpm for 5 minutes, the supernatant was obtained and used for panning. Affinity purification and phage replication were repeated 4 times, followed by eluting phages. Each phage clone was obtained from the proper plate of the eluted phage, followed by ELISA. Those phage clones showing a specific affinity to HRF were separated, followed by sequencing to confirm the peptide sequence. Those phage display peptides showing dominant binding to HRF were selected and listed below:\nThat is, each phage plaque was added to 1 ? of the ER2537 culture medium (OD600=0.5˜1) cultured in SB medium, followed by culture in a 37° C. incubator (rpm=250) for 5 hours. 100 ? of each culture solution was added to 900 ? of SB medium, followed by culture for overnight. […]\nEach phage solution separated above was diluted in an equal volume of 6% BSA/PBS, and 50 ? of the diluted solution was added to each well of the plastic well plate coated with HRF or BSA (control), which stood for 2 hours. […] After adding peroxidase substrate solution thereto (100 ? /well), OD405 was measured with an ELISA reader.\nHRF was diluted serially by ⅕ fold each from the concentration of 20 μg/ ? […] The phage 2 solution diluted serially by ⅕ fold each (½, 1/10, 1/50, 1/250, and 1/1250 of the stock solution) was added thereto, followed by ELISA and OD405 was measured."}, "[5]": {"conditions": "dTBP2 25 mg/kg s.c., protopic ointment 100 mg/mouse, vs PBS"}}}
{"substance": "WYVYPSM (IgE-dependent histamine-releasing factor binding peptide2) [dTBP2, ID; NO: 24]", "values": [{"measurement": "joint thickness", "setting": "CIA mouse model; 5 mg of dTBP2 from day 41", "value": "continuously increased"}, {"measurement": "joint thickness", "setting": "CIA mouse model; 25 mg of dTBP2 from day 41", "value": "reduced"}, {"measurement": "arthritis clinical score", "setting": "CIA mouse model; 25 mg of dTBP2 from day 41, vs vehicle alone or 5 mg", "value": "getting lower"}, {"measurement": "IL-4 mRNA level", "setting": "[1]; [5]", "value": "significantly decreased"}, {"measurement": "IL-13 mRNA level", "setting": "[1]; [5]", "value": "significantly decreased"}, {"measurement": "atopic symptoms including thick stratum corneum (H&E, skin thickness)", "setting": "[1]; [5]", "value": "improved"}, {"measurement": "histamine level", "setting": "[1]; [5]", "value": "lower"}, {"measurement": "level of Th17A", "setting": "[1]; [5]", "value": "lowered"}, {"measurement": "lymph node weight and size (lymph node assay)", "setting": "[1]; [5]", "value": "smaller in both weight and size than that of the PBS treated group"}, {"measurement": "infiltration of mast cells (toluidine blue)", "setting": "[1]; dTBP2 25 mg/kg s.c., protopic ointment 100 mg/mouse, vs positive control", "value": "significantly reduced"}, {"measurement": "atopic symptoms as points (atopic index: erythema, drying, excoriation, edema, erosion)", "setting": "[1]; dTBP2 subcutaneous 25 mg/kg, protopic ointment 100 mg/mouse, vs control", "value": "minor"}, {"measurement": "degree of atopy, visually confirmed", "setting": "[1]; dTBP2 subcutaneous 25 mg/kg, protopic ointment skin application 100 mg/mouse, vs control", "value": "lesser degree of atopy than the control group"}, {"measurement": "joint thickness", "setting": "[2]; 5 mg of dTBP2", "value": "continuously increased until day 41 and rapidly increased from day 41 to day 46"}, {"measurement": "development of rheumatoid arthritis", "setting": "[2]; 25 mg of dTBP2, three times a week, vs vehicle alone or 5 mg", "value": "inhibited more significantly"}, {"measurement": "joint thickness", "setting": "[2]; 25 mg of dTBP2", "value": "almost as same as that of the normal until day 46"}, {"measurement": "inhibition of incidence rate", "setting": "[2]; day 31, 25 mg of dTBP2, vs vehicle alone or 5 mg", "value": "at least 50%"}, {"measurement": "inhibition of incidence rate", "setting": "[2]; day 46, 25 mg of dTBP2, vs vehicle alone or 5 mg", "value": "at least 70%"}, {"measurement": "HRF binding affinity (rank order)", "setting": "HRF [3]", "value": "p2, m6>m7>m3>m2>fm5>M1>m4"}, {"measurement": "binding force to serially diluted HRF (ELISA, OD405)", "setting": "HRF [4]; HRF diluted until 0.4, 0.08, 0.016, and 0.032 μg/ml, phage solution serially diluted", "value": "maintained its binding force to HRF"}, {"measurement": "binding of phage clone to HRF (ELISA, OD405)", "setting": "HRF [4]; wells coated with HRF or BSA (control)", "value": "specifically bind to HRF"}]}
